Results taken from patent publication US20080153891A1, “SYNERGISTIC ANTI-CANCER COMPOSITIONS” (The Arizona Board of Regents, priority 2003, published 2008).

How the values were obtained:
[1] = Toxicology study in non-tumor bearing (normal) mice
Experimental: A toxicology study was performed in non-tumor bearing (i.e., normal) mice given imexon (100 mg/kg/day×9 days) with either gemcitabine (180 mg/kg days 1, 5 and 9) or cytarabine (800 mg/kg days 1, 4 and 7). The tests were conducted to evaluate whether there was increased bone marrow toxicity or decreased renal and hepatic function for imexon combined with either agent.

A375 cells = experiment: Combination cytotoxicity with imexon, SRB assay, combination index (median-effect); assay type: cell-based, human; conditions: in combination with imexon at fixed constant ratio, 5 days after drugging, classified by combination index
8226/s cells = experiment: Combination cytotoxicity with imexon, MTT assay, combination index (median-effect); assay type: cell-based, human; conditions: in combination with imexon at fixed constant ratio, 5 days after drugging, classified by combination index

Structure (SMILES)	Mean Platelet Counts (SD), Day 10 ([1]; Day 10, imexon 100 mg/kg days 1-9, cytarabine 800 mg/kg days 1, 4, 7, gemcitabine 180 mg/kg days 1, 5, 9)	Mean Platelet Counts (SD), Day 12 ([1]; Day 12, imexon 100 mg/kg days 1-9, cytarabine 800 mg/kg days 1, 4, 7, gemcitabine 180 mg/kg days 1, 5, 9)	number of red blood cells ([1]; imexon 100 mg/kg/day x 9 days)	Effect of second antineoplastic agent in combination with imexon, A375 CELL LINE (A375 cells)	Effect of second antineoplastic agent in combination with imexon, 8226/S CELL LINE (8226/s cells)
N=C1NC(=O)N2CC12 (stereo not shown) [Imexon, 4-imino-1,3-diazabicyclo[3.1.0]-hexan-2-one]	880 (180) × 1000/μL	920 (138) × 1000/μL	increased slightly		
Nc1ccn([C@@H]2O[C@H](CO)[C@@H](O)[C@@H]2O)c(=O)n1 [cytarabine]				Synergistic (Where the combination index is less than 1, synergism is indicated)	Synergistic (Where the combination index is less than 1, synergism is indicated)
CN(Cc1cnc2nc(N)nc(N)c2n1)c1ccc(C(=O)N[C@@H](CCC(=O)O)C(=O)O)cc1 [methotrexate]				Antagonistic (Where the combination index is greater than 1, antagonism is indicated)	Antagonistic (Where the combination index is greater than 1, antagonism is indicated)
CCC1=C[C@@H]2CN(C1)Cc1c([nH]c3ccccc13)[C@@](C(=O)OC)(c1cc3c(cc1OC)N(C)[C@H]1[C@@](O)(C(=O)OC)[C@H](OC(C)=O)[C@]4(CC)C=CCN5CC[C@]31[C@@H]54)C2 [vinorelbine]				Additive (Where the combination index is equal to 1, summation (also commonly referred to as additivity) is indicated)	Additive (Where the combination index is equal to 1, summation (also commonly referred to as additivity) is indicated)
Nc1ccn([C@@H]2O[C@H](CO)[C@@H](O)C2(F)F)c(=O)n1 [gemcitabine]				Synergistic (Where the combination index is less than 1, synergism is indicated)	Synergistic (Where the combination index is less than 1, synergism is indicated)
COc1cccc2c1C(=O)c1c(O)c3c(c(O)c1C2=O)C[C@@](O)(C(=O)CO)C[C@@H]3O[C@H]1C[C@H](N)[C@H](O)[C@H](C)O1 [doxorubicin]				Antagonistic (Where the combination index is greater than 1, antagonism is indicated)	Antagonistic (Where the combination index is greater than 1, antagonism is indicated)
CC(=O)O[C@@]12CO[C@@H]1C[C@H](O)[C@@]1(C)C(=O)[C@H](O)C3=C(C)[C@@H](OC(=O)[C@H](O)[C@@H](NC(=O)OC(C)(C)C)c4ccccc4)C[C@@](O)([C@@H](OC(=O)c4ccccc4)[C@H]21)C3(C)C [taxotere, docetaxel]				Synergistic (Where the combination index is less than 1, synergism is indicated)	Synergistic (Where the combination index is less than 1, synergism is indicated)
CN(C)/N=N/c1[nH]cnc1C(N)=O [dacarbazine (DTIC), dacarbazine]				Synergistic (Where the combination index is less than 1, synergism is indicated)	Synergistic (Where the combination index is less than 1, synergism is indicated)
N.N.[Cl][Pt][Cl] [cisplatin]				Synergistic (Where the combination index is less than 1, synergism is indicated)	Synergistic (Where the combination index is less than 1, synergism is indicated)
O=c1[nH]cc(F)c(=O)[nH]1 [5-fluorouracil]				Synergistic (Where the combination index is less than 1, synergism is indicated)	Synergistic (Where the combination index is less than 1, synergism is indicated)
C[C@@H]1C[C@H]2[C@@H]3CCC4=CC(=O)C=C[C@]4(C)[C@@]3(F)[C@@H](O)C[C@]2(C)[C@@]1(O)C(=O)CO [dexamethasone]				Additive (Where the combination index is equal to 1, summation (also commonly referred to as additivity) is indicated)	Antagonistic (Where the combination index is greater than 1, antagonism is indicated)
CC(=O)O[C@H]1C(=O)[C@@]2(C)[C@H]([C@H](OC(=O)c3ccccc3)[C@]3(O)C[C@H](OC(=O)[C@H](O)[C@@H](NC(=O)c4ccccc4)c4ccccc4)C(C)=C1C3(C)C)[C@]1(OC(C)=O)CO[C@@H]1C[C@@H]2O [paclitaxel]				Additive (Where the combination index is equal to 1, summation (also commonly referred to as additivity) is indicated)	Antagonistic (Where the combination index is greater than 1, antagonism is indicated)
